# Test system: not listed separately
# Experiment: Kinetic aqueous solubility
# Conditions: 1% DMSO, Phosphate Buffered Saline pH 7.4, 1 hour, ambient, UV/Vis absorbance
row,SMILES,Solubility [µM]
1,COc1ccc(-c2ccc3c(C(=O)NC(C)(C)COC(=O)CCl)nn(C)c3c2)cc1C [QW-488],5.4
2,CC(C)Oc1ccc(-c2ccc3c(C(=O)NC(C)(C)COC(=O)CCl)nn(C)c3c2)cc1 [QW-506],1.7

# Same assay, conditions: aqueous solubility; Table 9
row,SMILES,Solubility [µM]
1,"COc1ccc(N(C(=O)CCl)C(C(=O)NCCc2ccccc2)c2cccs2)cc1Cl (centres unmarked) [ML162, reference compound]",3.8
2,CC(C)(COC(=O)CBr)NC(=O)c1cc2cc([N+](=O)[O-])ccc2[nH]1 [QW-171],56
3,COc1ccc(-c2ccc3c(C(=O)NC(C)(C)COC(=O)CCl)nn(C)c3c2)cc1C [QW-488],5.4
4,CC(C)Oc1ccc(-c2ccc3c(C(=O)NC(C)(C)COC(=O)CCl)nn(C)c3c2)cc1 [QW-506],1.7

# Target: T1, GPX4 (Homo sapiens, UniProt P36969)
# T1 sequence (P36969 1-170 isoform P36969-2): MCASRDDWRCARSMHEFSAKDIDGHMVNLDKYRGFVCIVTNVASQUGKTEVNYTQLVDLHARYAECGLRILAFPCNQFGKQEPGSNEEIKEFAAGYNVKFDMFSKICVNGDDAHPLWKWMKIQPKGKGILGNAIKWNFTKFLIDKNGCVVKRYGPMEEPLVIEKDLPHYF
# Experiment: GPX4 activity assay in cell lysates (NADPH-coupled)
# Assay type: biochemical
# Set-up: endogenous in cells; host or cells: A-673 cell lysate
# Conditions: 5 μM
# Summary of the method: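 Native GPX4 in lysates of A-673 cells grown with 20 nM sodium selenite; lysate preincubated with compound 45 min at 37 °C in pH 8.0 buffer with 3 mM GSH, 0.5 mM NADPH and glutathione reductase. Reaction started with phosphatidylcholine hydroperoxide; NADPH consumption followed at 340 nm over 25 min; triplicates.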
row,SMILES,GPX4% inhibition at 5 μM [%]
1,COc1ccc(-c2ccc3c(C(=O)NC(C)(C)COC(=O)CCl)nn(C)c3c2)cc1C [QW-488],87.3 ± 3.3
2,CC(C)Oc1ccc(-c2ccc3c(C(=O)NC(C)(C)COC(=O)CCl)nn(C)c3c2)cc1 [QW-506],75.4 ± 3.9

# Same assay, conditions: 200 μM; generation 1; mean ± s.d., n = 3
row,SMILES,GPX4% inhibition at 200 (μM) [%]
1,CC(C)(COC(=O)CBr)NC(=O)c1cc2cc([N+](=O)[O-])ccc2[nH]1 [QW-171],83.9 ± 16.8

# Test system: not listed separately
# Experiment: in vitro
# Assay type: in vitro ADME, human
# Conditions: human liver microsomes
# Method: (§1) […]. The incubation timepoints measured were 0, 5, 10, 15, 30, and 45 minutes. All samples were prepared in duplicate and analyzed by LC-MS/MS.
row,SMILES,Microsome Stability t1/2 (min) human [min]
1,"COc1ccc(N(C(=O)CCl)C(C(=O)NCCc2ccccc2)c2cccs2)cc1Cl (centres unmarked) [ML162, reference compound]",0.9

# Same assay, conditions: human, microsomes
row,SMILES,Microsome Stability t1/2 (min) human [min]
1,CC(C)(COC(=O)CBr)NC(=O)c1cc2cc([N+](=O)[O-])ccc2[nH]1 [QW-171],187
2,COc1ccc(-c2ccc3c(C(=O)NC(C)(C)COC(=O)CCl)nn(C)c3c2)cc1C [QW-488],1.8
3,CC(C)Oc1ccc(-c2ccc3c(C(=O)NC(C)(C)COC(=O)CCl)nn(C)c3c2)cc1 [QW-506],2.9

# Test system: not listed separately
# Experiment: in vitro
# Assay type: in vitro ADME, mouse
# Conditions: mouse liver microsomes
# Method: as §1
row,SMILES,Microsome Stability t1/2 (min) mouse [min]
1,"COc1ccc(N(C(=O)CCl)C(C(=O)NCCc2ccccc2)c2cccs2)cc1Cl (centres unmarked) [ML162, reference compound]",1.5

# Same assay, conditions: mouse, microsomes
row,SMILES,Microsome Stability t1/2 (min) mouse [min]
1,CC(C)(COC(=O)CBr)NC(=O)c1cc2cc([N+](=O)[O-])ccc2[nH]1 [QW-171],283
2,COc1ccc(-c2ccc3c(C(=O)NC(C)(C)COC(=O)CCl)nn(C)c3c2)cc1C [QW-488],1.1
3,CC(C)Oc1ccc(-c2ccc3c(C(=O)NC(C)(C)COC(=O)CCl)nn(C)c3c2)cc1 [QW-506],1.7
